In PubChem BioAssay (NCI):
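Where inhibition never reached the appropriate level, the endpoint shown equals the highest concentration tested. Otherwise, values were interpolated linearly from a five-concentration, 48-hour dose response in 96-well plates. GI50 is the concentration that inhibits growth by half. TGI: total growth inhibition.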

Experiments:
Assay in all cases: NCI tumour cell line growth inhibition, 48 h
[1] = system: SK-MEL-28 melanoma
[2] = system: MALME-3M melanoma
[3] = system: NCI-H460 lung
[4] = system: CAKI-1 renal
[5] = system: HT29 colon
[6] = system: RXF 393 renal
[7] = system: ACHN renal
[8] = system: K-562 leukemia
[9] = system: SW-620 colon
[10] = system: RPMI-8226 leukemia

Row | SMILES | TGI [1] | TGI [2] | TGI [3] | TGI [4] | TGI [5] | TGI [6] | TGI [7] | TGI [8] | TGI [9] | GI50 [1] | GI50 [10] | TGI [10] | GI50 [2] | GI50 [3] | GI50 [4] | GI50 [5] | GI50 [7] | GI50 [8] | GI50 [9] | GI50 [6]
1 | CC(C)(C)OC(=O)NC1CCCC1=O (stereo unspecified) | > 100 µM | > 100 µM | > 100 µM | > 100 µM | > 100 µM | > 100 µM | > 100 µM | > 100 µM | > 100 µM |  |  |  |  |  |  |  |  |  |  | 
2 | Cc1cc(C)n(C2=NS(=O)(=O)c3ccccc3N2C)n1 | > 100 µM |  | > 100 µM | > 100 µM | > 100 µM | > 100 µM | > 100 µM | > 100 µM | > 100 µM |  |  |  |  |  |  |  |  |  |  | 
3 | O=S1CSSC1 | 59.8 µM | > 100 µM |  | 77.4 µM | 31.4 µM | 35.2 µM | 94.9 µM | 80.7 µM | 31.7 µM |  |  |  |  |  |  |  |  |  |  | 
4 | CCOC(=O)N1CCN(CCCCCOc2ccccc2C2CCCCC2)CC1 | 16.3 µM | 19.2 µM | 17.7 µM | 12.8 µM | 12 µM |  | 23.8 µM | 10.9 µM | 9.81 µM | 2.87 µM | 1.61 µM | 4.84 µM | 4.91 µM | 5 µM | 3.23 µM | 3.08 µM | 10.6 µM | 1.97 µM | 3.08 µM | 
5 | CN(C)C(=S)Nc1nnc(Nc2ccccc2)s1 | > 100 µM | > 100 µM | > 100 µM | > 100 µM | > 100 µM | > 100 µM | > 100 µM | > 100 µM | > 100 µM |  |  |  |  |  |  |  |  |  |  | 
6 | O=C(NCCN1CCNCC1)c1ccc(Nc2nc3ccccc3c3occc23)cc1 | 8.45 µM |  | > 100 µM | 32.3 µM | > 100 µM | 26.4 µM | 36 µM | 40.1 µM | 17.4 µM | 2.57 µM | 18.7 µM | 49.1 µM |  | 17.4 µM | 15.6 µM | 4.5 µM | 20.1 µM | 14.4 µM | 3.6 µM | 6.92 µM
7 | O=C1c2ccccc2-c2c1c1ccccc1c(=O)n2CCNCCn1c2c(c3ccccc3c1=O)C(=O)c1ccccc1-2 |  | > 25 µM | > 25 µM | > 25 µM |  | > 25 µM | > 25 µM | 16.2 µM | > 25 µM |  |  |  | > 25 µM | > 25 µM | > 25 µM |  | > 25 µM | 5.42 µM | > 25 µM | > 25 µM
8 | COc1ccc2c(NCCCCCCNc3c4ccccc4nc4cc(OC)ccc34)c3ccccc3nc2c1 |  | 2.55 µM | 1.1 µM | 3.39 µM | 0.486 µM | 0.483 µM | 1.01 µM | 0.304 µM | 1.08 µM |  |  | 0.717 µM |  |  |  |  |  |  |  | 
9 | CCCCCCCCCCCCCC[n+]1cccc(C(N)=O)c1 | 5.52 µM | 4.21 µM | 10.9 µM | 6.52 µM | 4.63 µM |  | 17.9 µM | 6.53 µM | 6.72 µM | 2.01 µM | 1.87 µM | 4.44 µM | 1.75 µM | 3.09 µM | 0.964 µM | 0.778 µM | 3.46 µM | 1.88 µM | 1.98 µM | 
